pIC50: −log10 of the molar value.
Tested on: 435261-313-R-J1-PDC complex spheroid viability
Assay: Anticancer human tumor 435261-313-R-J1-PDC patient-derived colon adenocarcinoma cell line growth inhibition [GQUAD]
Settings: for pIC50: curve of first compound; for viability, T/C: stronger effect = lower value
Description: DNA G-quadruplex Stabilizer Agents in Combinations in Complex Spheroids
A high-throughput screen of multi-cell type tumor spheroids was designed to identify active combinations of DNA G-quadruplex stabilizer agents and targeted small molecules. Complex spheroids include a stromal component modeled by human endothelial cells (HUVEC) and fibroblasts modeled by human mesenchymal stem cells (MSCs). The concentration ranges selected for each drug and investigational agent were based upon clinically achievable concentrations if the clinical Cmax of the agent was known.
Compounds. The drugs and investigational agents: pidnarulex (CX-5461; NSC782164), APTO-253 (NSC789042), BRACO-19 (NSC847499), peposertib (NSC802822), ceralasertib (NSC780249), elimusertib (NSC800525), camonsertib (NSC841442), AZD-1390 (NSC803789), olaparib (NSC753686), talazoparib (NSC767125), ART-558 (NSC835418), sotorasib (NSC818433), MRTX-1133 (NSC836407), SN-38 (NSC673596), topotecan (NSC609699), etoposide (NSC141540), doxorubicin (NSC123127), gemcitabine (NSC613327), 5-fluorouracil (NSC19893), paclitaxel (NSC125973), vemurafenib (NSC761431), panobinostat (NSC761190), R-306465 (JNJ-16241199; NSC773264), adavosertib (NSC754352), TP-3654 (NSC805149), carboplatin (NSC241240), KSQ-4279 (NSC840948), and staurosporine (NSC755774) were obtained from the National Cancer Institute (NCI) Developmental Therapeutics Program Chemical Repository (34). The FDA-approved anticancer drug set is available from the NCI Developmental Therapeutics Program. […] The stock solutions were prepared in dimethyl sulfoxide (DMSO, Sigma-Aldrich, St. Louis, MO, cat. D2650) at 800-fold the tested concentration and stored at -70 degrees C prior to their use. All drugs and investigational agents were tested over a range starting from a high concentration at or near the clinical Cmax and decreasing in half-log increments. If the clinical Cmax for an agent had not been determined, the highest concentration tested was 10 microM.
2.3 Cell Culture. All cells were maintained in an incubator at 37 degrees C and 5% CO2 with 95% humidity. The PDC lines were cultured according to standard operating procedures established by the NCI PDMR. All PDCs were thawed and cultured in Matrigel-coated flasks prepared with a working solution of 1X Ham's F-12 nutrient mix, without supplementation (Invitrogen, cat. 11765054), 100 U/mL penicillin-streptomycin (Invitrogen, cat. 15140122), and 2.5% Matrigel (Corning Inc., cat. 354248) for the first three passages. The 857933-349-R-J2-PDC line was cultured in 6C/Colon 1B media, which includes advanced DMEM/F-12 (Thermo Fisher Scientific, cat. 12634028), 10 mM HEPES (Thermo Fisher Scientific, cat. 15630080), 1X GlutaMAX supplement (Thermo Fisher Scientific, cat. 35050061), 0.1 mg/mL primocin (InvivoGen, cat. ant-pm-2), 10% defined fetal bovine serum, heat inactivated (HyClone Laboratories Inc., cat. SH30070.03HI), 50% L-WRN conditioned media (ATCC, cat. CRL-3276), 1.25 mM N-Acetyl-L-cysteine (Sigma-Aldrich, cat. A9165), 10 mM nicotinamide (Sigma-Aldrich, cat. N0636), 1X B-27 supplement (Thermo Fisher Scientific, cat. 17504044), 1X N-2 supplement (Thermo Fisher Scientific, cat. 17502048), 10 microM Y-27632 dihydrochloride (Tocris Bioscience, cat. 1254), and 50 ng/mL human EGF recombinant protein (Thermo Fisher Scientific, cat. PHG0311). The 485176-168-R4-J1-PDC line was cultured in Panc media, which includes all 6C/Colon 1B media components plus 100 ng/mL human FGF-10 (Thermo Fisher Scientific, cat. 100-26), 500 nM SB-431542 (Selleckchem, cat. S1067), and gastrin (Tocris, cat. 3006).
[…]

[1] = second compound 0.0316 µM, first compound 0.0316 µM
[2] = second compound 0.0316 µM, first compound 0.316 µM
[3] = second compound 0.1 µM, first compound 0.0316 µM
[4] = second compound 0.1 µM, first compound 0.316 µM
[5] = second compound 0.316 µM, first compound 0.0316 µM
[6] = second compound 0.316 µM, first compound 0.316 µM
[7] = second compound 1 µM, first compound 0.0316 µM
[8] = second compound 1 µM, first compound 0.316 µM
[9] = second compound 3.16 µM, first compound 0.0316 µM
[10] = second compound 3.16 µM, first compound 0.316 µM
[11] = second compound 10 µM, first compound 0.0316 µM
[12] = second compound 10 µM, first compound 0.316 µM
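Note: spheroids exposed to the agents for seven days before readout.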
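Throughout, for viability, T/C: percent of vehicle control viability with DMSO wells as 100%.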

`CC1COCCN1c1cc(C2(O)CC3CCC(C2)O3)c2cnn(-c3ccn[nH]3)c2n1` (centres undefined) + Cc1cnc(CNC(=O)c2c(=O)c3ccc(N4CCCN(C)CC4)nc3n3c2sc2ccccc23)cn1 gave a pIC50 (second compound 0.0316 µM) of 7.02, a pIC50 (second compound 0.1 µM) of 6.98 and a pIC50 (second compound 0.316 µM) of 7.31. For the same compound, the pIC50 (second compound 1 µM) was greater than 7.50, the pIC50 (second compound 3.16 µM) was greater than 7.50 and the pIC50 (second compound 10 µM) was greater than 7.50. The viability, T/C [1] was 59.8%, the viability, T/C (second compound 0.0316 µM, first compound 0.1 µM) was 48% and the viability, T/C [2] was 42.8%. For the same compound, the viability, T/C (second compound 0.0316 µM, first compound 1 µM) was 24.6%, the viability, T/C (second compound 0.0316 µM, first compound 3.16 µM) was 23.5% and the viability, T/C (second compound 0.0316 µM, first compound 10 µM) was 11.2%. For the same compound, the viability, T/C [3] was 49.5%, the viability, T/C (second compound 0.1 µM, first compound 0.1 µM) was 57.9% and the viability, T/C [4] was 38.2%. For the same compound, the viability, T/C (second compound 0.1 µM, first compound 1 µM) was 26.6%, the viability, T/C (second compound 0.1 µM, first compound 3.16 µM) was 22.3% and the viability, T/C (second compound 0.1 µM, first compound 10 µM) was 10.1%. For the same compound, the viability, T/C [5] was 51.5%, the viability, T/C (second compound 0.316 µM, first compound 0.1 µM) was 47.9% and the viability, T/C [6] was 37.2%. For the same compound, the viability, T/C (second compound 0.316 µM, first compound 1 µM) was 27.7%, the viability, T/C (second compound 0.316 µM, first compound 3.16 µM) was 18.8% and the viability, T/C (second compound 0.316 µM, first compound 10 µM) was 8.98%. It also gave a viability, T/C [7] of 38.5%, a viability, T/C (second compound 1 µM, first compound 0.1 µM) of 36.1% and a viability, T/C [8] of 23.1%. It also gave a viability, T/C (second compound 1 µM, first compound 1 µM) of 15.7%, a viability, T/C (second compound 1 µM, first compound 3.16 µM) of 11.3% and a viability, T/C (second compound 1 µM, first compound 10 µM) of 4.12%. It also gave a viability, T/C [9] of 12.3%, a viability, T/C (second compound 3.16 µM, first compound 0.1 µM) of 14.2% and a viability, T/C [10] of 6.28%. For the same compound, the viability, T/C (second compound 3.16 µM, first compound 1 µM) was 0.12%, the viability, T/C (second compound 3.16 µM, first compound 3.16 µM) was 0.15% and the viability, T/C (second compound 3.16 µM, first compound 10 µM) was 0.09%. The viability, T/C [11] was 0.8%, the viability, T/C (second compound 10 µM, first compound 0.1 µM) was 0.14% and the viability, T/C [12] was 0.17%. For the same compound, the viability, T/C (second compound 10 µM, first compound 1 µM) was 0.18%, the viability, T/C (second compound 10 µM, first compound 3.16 µM) was 0.19% and the viability, T/C (second compound 10 µM, first compound 10 µM) was 0.13%.
Work on `CC[C@@]1(O)C(=O)OCc2c1cc1n(c2=O)Cc2cc3c(CN(C)C)c(O)ccc3nc2-1` + Cc1cnc(CNC(=O)c2c(=O)c3ccc(N4CCCN(C)CC4)nc3n3c2sc2ccccc23)cn1 yielded a pIC50 (second compound 0.0316 µM) of less than 6.50, a pIC50 (second compound 0.1 µM) of less than 6.50 and a pIC50 (second compound 0.316 µM) of 6.95. The pIC50 (second compound 1 µM) was greater than 9.00, the pIC50 (second compound 3.16 µM) was greater than 9.00 and the pIC50 (second compound 10 µM) was greater than 9.00. It also gave a viability, T/C (second compound 0.0316 µM, first compound 0.000999 µM) of 66.6%, a viability, T/C (second compound 0.0316 µM, first compound 0.00316 µM) of 63% and a viability, T/C (second compound 0.0316 µM, first compound 0.00999 µM) of 73%. The viability, T/C [1] was 53%, the viability, T/C (second compound 0.0316 µM, first compound 0.0999 µM) was 60.6% and the viability, T/C [2] was 72.1%. The viability, T/C (second compound 0.1 µM, first compound 0.000999 µM) was 57.3%, the viability, T/C (second compound 0.1 µM, first compound 0.00316 µM) was 69% and the viability, T/C (second compound 0.1 µM, first compound 0.00999 µM) was 58.7%. For the same compound, the viability, T/C [3] was 50.9%, the viability, T/C (second compound 0.1 µM, first compound 0.0999 µM) was 63.2% and the viability, T/C [4] was 53.4%. The viability, T/C (second compound 0.316 µM, first compound 0.000999 µM) was 53.1%, the viability, T/C (second compound 0.316 µM, first compound 0.00316 µM) was 59.2% and the viability, T/C (second compound 0.316 µM, first compound 0.00999 µM) was 50.5%. For the same compound, the viability, T/C [5] was 55.8%, the viability, T/C (second compound 0.316 µM, first compound 0.0999 µM) was 46.2% and the viability, T/C [6] was 49.3%. For the same compound, the viability, T/C (second compound 1 µM, first compound 0.000999 µM) was 31.9%, the viability, T/C (second compound 1 µM, first compound 0.00316 µM) was 48.8% and the viability, T/C (second compound 1 µM, first compound 0.00999 µM) was 35.2%. The viability, T/C [7] was 43.4%, the viability, T/C (second compound 1 µM, first compound 0.0999 µM) was 47.6% and the viability, T/C [8] was 34.1%. For the same compound, the viability, T/C (second compound 3.16 µM, first compound 0.000999 µM) was 16.9%, the viability, T/C (second compound 3.16 µM, first compound 0.00316 µM) was 20.2% and the viability, T/C (second compound 3.16 µM, first compound 0.00999 µM) was 21.8%. For the same compound, the viability, T/C [9] was 16%, the viability, T/C (second compound 3.16 µM, first compound 0.0999 µM) was 12.1% and the viability, T/C [10] was 8.56%. The viability, T/C (second compound 10 µM, first compound 0.000999 µM) was 0.19%, the viability, T/C (second compound 10 µM, first compound 0.00316 µM) was 0.19% and the viability, T/C (second compound 10 µM, first compound 0.00999 µM) was 0.22%. For the same compound, the viability, T/C [11] was 0.23%, the viability, T/C (second compound 10 µM, first compound 0.0999 µM) was 0.23% and the viability, T/C [12] was 0.22%.

Reference: PubChem BioAssay AID2060494 (Molecular Pharmacology Branch, DTP, NCI, 2025)
